Where two headings read alike, the source gives them in different places. One block for each compound: values may come before it.
Key:
Human-derived DNA-PK = Human-derived DNA-PK (Homo sapiens, UniProt P78527); assay: DNA-dependent protein kinase (DNA-PK) inhibitory activity screening experiment (Eurofins, HTRF); format: biochemical; details: 50 nM GST-cMyc-p53, 30 minutes at room temperature
Description: Experimental Method (Eurofins Pharma Discovery Service) DNA-PK (h) was incubated in assay buffer containing 50 nM GST-cMyc-p53 and Mg/ATP (according to the required concentration). The reaction was initiated by adding Mg/ATP mixture. After 30 minutes of incubation at room temperature, the reaction was stopped by the addition of stop solution containing EDTA. Finally, detection buffer (containing labeled anti-GST monoclonal antibody and europium-labeled anti-Ser15 antibody against phosphorylated p53) was added.

[1] = Pharmacokinetic evaluation in mice, plasma, IV and PO; format: in vivo; details: Balb/c male mice; for Tlast / AUC(0-t) / C0 / clearance / half-life / Vd / Cmax / Tmax / AUC0-last / T1/2: plasma; for F: PO (2 mg/kg) vs IV (0.4 mg/kg); for Vd: read-out: Vdss
Description: The test compound was mixed with 10% dimethyl sulfoxide/50% polyethylene glycol 200/40% water, vortexed and sonicated to prepare a nearly clear solution of 0.08 mg/mL, which was filtered with a microporous membrane for use. Balb/c male mice of 18 to 20 grams were selected, and the candidate compound solution was administered intravenously at a dose of 0.4 mg/kg. The test compound was mixed with 10% dimethyl sulfoxide/50% polyethylene glycol 200/40% water, vortexed and sonicated to prepare a nearly clear solution of 0.2 mg/mL, which was filtered with a microporous membrane for use. Balb/c male mice of 18 to 20 grams were selected, and the candidate compound solution was orally administered at a dose of 2 mg/kg. Whole blood was collected for a certain period of time, and plasma was prepared, then drug concentration was analyzed by LC-MS/MS method, and pharmacokinetic parameters were calculated by Phoenix WinNonlin software (Pharsight, USA).
IV: intravenous administration; PO: oral administration; C0: instantaneous required concentration after intravenous injection; Cmax: maximum blood drug concentration after administration; Tmax: time required to reach the peak drug concentration after administration; T1/2: time required for the blood drug concentration to decrease by half; Vdss: apparent volume of distribution, refers to the proportional constant of the drug dose in vivo and the blood drug concentration when the drug reaches a dynamic equilibrium in vivo. Cl: clearance rate, refers to the apparent volume of distribution of the drug cleared in vivo per unit time; Tlast: time at the last detection point; AUC0-last: area under the drug-time curve, refers to the area surrounded by the blood drug concentration curve to the time axis; F: a measure of the speed and degree of drug absorption into the blood circulation, which is an important index for evaluating the degree of drug absorption.

[2] = ATP: 10 μM, read-out: DNA-PK kinase inhibitory activity IC50
[3] = mouse, PO (2 mg/kg), read-out: Tmax

SMILES: COC1CCC2(CC1)C(=O)N(C)c1cnc(Nc3cn4ncnc4cc3C)nc12 (single isomer, unassigned) [Compound 3]
IC50 (Human-derived DNA-PK; [2]): 10 nM

SMILES: COC1CCC2(CC1)C(=O)N(C)c1cnc(Nc3cn4ncnc4cc3C)nc12 (single isomer, unassigned) [Compound 4]
IC50 (Human-derived DNA-PK; [2]): 4 nM

SMILES: Cc1cc2ncnn2cc1Nc1ncc2c(n1)C1(CCC(C(F)(F)F)CC1)C(=O)N2C (single isomer, unassigned) [Compound 18]
IC50 (Human-derived DNA-PK; [2]): 4 nM

SMILES: Cc1cc2ncnn2cc1Nc1ncc2c(n1)C1(CCC(C(F)(F)F)CC1)C(=O)N2C (single isomer, unassigned) [Compound 19]
IC50 (Human-derived DNA-PK; [2]): 7 nM

SMILES: COC1(C)CCC2(CC1)C(=O)N(C)c1cnc(Nc3cn4ncnc4cc3C)nc12 (single isomer, unassigned) [Compound 27]
IC50 (Human-derived DNA-PK; [2]): 10 nM

SMILES: COC1(C)CCC2(CC1)C(=O)N(C)c1cnc(Nc3cn4ncnc4cc3C)nc12 (single isomer, unassigned) [Compound 28]
IC50 (Human-derived DNA-PK; [2]): 3 nM

SMILES: CC(=O)N1CCC2(CC1)C(=O)N(C)c1cnc(Nc3cn4ncnc4cc3C)nc12 [Compound 6]
IC50 (Human-derived DNA-PK; [2]): 6 nM

SMILES: Cc1cc2ncnn2cc1Nc1ncc2c(n1)C1(CCN(CC(F)(F)F)CC1)C(=O)N2C [Compound 8]
IC50 (Human-derived DNA-PK; [2]): 4 nM

SMILES: Cc1cc2ncnn2cc1Nc1ncc2c(n1)C1(CCC3(CCC3)CC1)C(=O)N2C [Compound 11]
Tlast ([1]; IV (0.4 mg/kg)): 2 h
F [1]: 73.7%
Tlast ([1]; PO (2 mg/kg)): 4 h
AUC(0-t) ([1]; mouse, IV (0.4 mg/kg)): 0.349 µM·h
C0 ([1]; mouse, IV (0.4 mg/kg)): 1250 nM
clearance ([1]; mouse, IV (0.4 mg/kg)): 47.2 mL/min/kg
half-life ([1]; mouse, IV (0.4 mg/kg)): 14.5 min
Vd ([1]; mouse, IV (0.4 mg/kg)): 0.855 L/kg
AUC(0-t) ([1]; mouse, PO (2 mg/kg)): 1.29 µM·h
Cmax ([1]; mouse, PO (2 mg/kg)): 1220 nM
half-life ([1]; mouse, PO (2 mg/kg)): 29.6 min
Tmax [1, 3]: 30 min
IC50 (Human-derived DNA-PK; [2]): 1 nM

SMILES: Cc1cc2ncnn2cc1Nc1ncc2c(n1)C1(CCC(C)(C)CC1)C(=O)N2C [Compound 12]
AUC0-last ([1]; IV (0.4 mg/kg)): 0.358 µM·h
T1/2 ([1]; IV (0.4 mg/kg)): 12.2 min
Tlast ([1]; IV (0.4 mg/kg)): 1 h
F [1]: 114%
AUC0-last ([1]; PO (2 mg/kg)): 2.036 µM·h
Cmax ([1]; PO (2 mg/kg)): 1860 nM
T1/2 ([1]; PO (2 mg/kg)): 29.5 min
Tlast ([1]; PO (2 mg/kg)): 4 h
Tmax ([1]; PO (2 mg/kg)): 30 min
C0 ([1]; mouse, IV (0.4 mg/kg)): 1280 nM
clearance ([1]; mouse, IV (0.4 mg/kg)): 45.8 mL/min/kg
Vd ([1]; mouse, IV (0.4 mg/kg)): 0.794 L/kg
IC50 (Human-derived DNA-PK; [2]): 1 nM

SMILES: Cc1cc2ncnn2cc1Nc1ncc2c(n1)C1(CCC3(CC1)COC3)C(=O)N2C [Compound 13]
IC50 (Human-derived DNA-PK; [2]): 6 nM

SMILES: Cc1cc2ncnn2cc1Nc1ncc2c(n1)C1(CCC3(CC3)CC1)C(=O)N2C [Compound 15]
AUC0-last ([1]; IV (0.4 mg/kg)): 0.454 µM·h
T1/2 ([1]; IV (0.4 mg/kg)): 15.2 min
Tlast ([1]; IV (0.4 mg/kg)): 2 h
F [1]: 83%
AUC0-last ([1]; PO (2 mg/kg)): 1.882 µM·h
T1/2 ([1]; PO (2 mg/kg)): 59.8 min
Tlast ([1]; PO (2 mg/kg)): 8 h
Tmax ([1]; PO (2 mg/kg)): 15 min
C0 ([1]; mouse, IV (0.4 mg/kg)): 1230 nM
clearance ([1]; mouse, IV (0.4 mg/kg)): 37.6 mL/min/kg
Vd ([1]; mouse, IV (0.4 mg/kg)): 0.853 L/kg
Cmax ([1]; mouse, PO (2 mg/kg)): 1640 nM
IC50 (Human-derived DNA-PK; [2]): 4 nM

Further lines, results first:

IC50 (Human-derived DNA-PK; [2]): 11 nM
SMILES: Cc1cc2ncnn2cc1Nc1ncc2c(n1)C1(CCC(O)CC1)C(=O)N2C (single isomer, unassigned) [Compound 22]

IC50 (Human-derived DNA-PK; DNA-PK kinase inhibitory activity IC50, ATP: 10 μM): 39 nM
SMILES: Cc1cc2ncnn2cc1Nc1ncc2c(n1)C1(CCOCC1)C(=O)N2C [Compound 1]

IC50 (Human-derived DNA-PK; [2]): 6 nM
SMILES: Cc1cc2ncnn2cc1Nc1ncc2c(n1)C1(CCCCC1)C(=O)N2C [Compound 2]

IC50 (Human-derived DNA-PK; [2]): 16 nM
SMILES: Cc1cc2ncnn2cc1Nc1ncc2c(n1)C1(CCCOCC1)C(=O)N2C (stereo not shown) [Compound 5]

IC50 (Human-derived DNA-PK; [2]): 25 nM
SMILES: Cc1cc2ncnn2cc1Nc1ncc2c(n1)C1(CCN(C)CC1)C(=O)N2C [Compound 7]

Tlast ([1]; IV (0.4 mg/kg)): 2 h
F [1]: 74.5%
Tlast ([1]; PO (2 mg/kg)): 4 h
AUC(0-t) ([1]; mouse, IV (0.4 mg/kg)): 0.311 µM·h
C0 ([1]; mouse, IV (0.4 mg/kg)): 871 nM
clearance ([1]; mouse, IV (0.4 mg/kg)): 53.4 mL/min/kg
half-life ([1]; mouse, IV (0.4 mg/kg)): 14.5 min
Vd ([1]; mouse, IV (0.4 mg/kg)): 1.07 L/kg
AUC(0-t) ([1]; mouse, PO (2 mg/kg)): 1.16 µM·h
Cmax ([1]; mouse, PO (2 mg/kg)): 1080 nM
half-life ([1]; mouse, PO (2 mg/kg)): 28.7 min
Tmax [1, 3]: 30 min
IC50 (Human-derived DNA-PK; [2]): 3 nM
SMILES: Cc1cc2ncnn2cc1Nc1ncc2c(n1)C1(CCC(F)(F)CC1)C(=O)N2C [Compound 9]

IC50 (Human-derived DNA-PK; [2]): 7 nM
SMILES: Cc1cc2ncnn2cc1Nc1ncc2c(n1)C1(CC=C(F)CC1)C(=O)N2C (stereo not shown) [Compound 10]

IC50 (Human-derived DNA-PK; [2]): 11 nM
SMILES: CON=C1CCC2(CC1)C(=O)N(C)c1cnc(Nc3cn4ncnc4cc3C)nc12 (stereo not shown) [Compound 14]

IC50 (Human-derived DNA-PK; [2]): 39 nM
SMILES: Cc1cc2ncnn2cc1Nc1ncc2c(n1)C1(CC1)C(=O)N2C [Compound 16]

IC50 (Human-derived DNA-PK; [2]): 7 nM
SMILES: Cc1cc2ncnn2cc1Nc1ncc2c(n1)C1(CCCC1)C(=O)N2C [Compound 17]

IC50 (Human-derived DNA-PK; [2]): 15 nM
SMILES: Cc1cc2ncnn2cc1Nc1ncc2c(n1)C1(CCC(=O)CC1)C(=O)N2C [Compound 20]

IC50 (Human-derived DNA-PK; [2]): 8 nM
SMILES: Cc1cc2ncnn2cc1Nc1ncc2c(n1)C1(CCSCC1)C(=O)N2C [Compound 23]

IC50 (Human-derived DNA-PK; [2]): 84 nM
SMILES: Cc1cc2ncnn2cc1Nc1ncc2c(n1)C1(CCS(=O)(=O)CC1)C(=O)N2C [Compound 24]

Reference: patent publication US20230055321A1, “PYRIMIDOPYRROLE SPIRO COMPOUNDS AND DERIVATIVES THEREOF AS DNA-PK INHIBITORS” (MEDSHINE DISCOVERY INC., priority 2019, published 2023)
